Experimental data from US20220064696A1, “TARGET ENGAGEMENT ASSAY FOR RAS PROTEINS” (Promega Corporation, priority 2020, published 2022).
Values belong to the compound of their own block, whether it stands above or below them.

Assays:
Assay type in all cases: binding
KRAS^G12C [1] = biological target: T1, KRAS^G12C (Homo sapiens, UniProt P01116, G12C); test: NanoLuc fusion BRET target engagement assay in cells, tracer JRW-2025; conditions: HEK293 cells, tracer JRW-2025, FIG. 4
T1 construct: expressed in transfected cells; host or cells: HEK293
Description: (§1) Luminescence was produced from either NanoLuc (Nluc) tagging of KRAS as the BRET donor, or by NanoBiT tagging of KRAS, wherein BRET donor signal originates from KRAS multimeric species in cells. In 96-well plates, 20,000 HEK293 cells per well were transfected with KRAS-Nluc fusions or KRAS-NanoBiT fusions expressed from pFN31K and pFN32K plasmids. Transfections were performed using 3:1 FuGENE HD:plasmid ratios. […] After incubation, NanoBRET-TE substrate solution was added to a final concentration of 1×, and BRET was measured on a Glomax Discover plate reader.

KRAS [2] = biological target: T2, KRAS (Homo sapiens, UniProt P01116); test: as above; conditions: HEK293 cells, wild-type KRAS-NanoLuc fusion, tracer JRW-2025, FIG. 4
T2 construct: expressed in transfected cells; host or cells: HEK293
Description: as §1

KRAS^G12D [3] = biological target: T3, KRAS^G12D (Homo sapiens, UniProt P01116, G12D); test: as above; conditions: HEK293 cells, tracer JRW-2025, FIG. 4
T3 construct: expressed in transfected cells; host or cells: HEK293
Description: as §1

KRAS^G12V [4] = biological target: T4, KRAS^G12V (Homo sapiens, UniProt P01116, G12V); test: as above; conditions: HEK293 cells, tracer JRW-2025, FIG. 4
T4 construct: expressed in transfected cells; host or cells: HEK293
Description: as §1

KRAS2B(G12V) [5] = biological target: T5, KRAS2B(G12V) (Homo sapiens, UniProt P01116, G12V); test: Target engagement at KRAS(G12V) homomultimeric complexes, NanoBiT oligomer configuration with SmBiT tag; conditions: live HEK293 cells, LgBiT-KRAS2B(G12V) and SmBiT-KRAS2B(G12V)
T5 construct: expressed in transfected cells; host or cells: HEK293
Description: (§2) To explore this concept, the NanoBiT™ Technology was used to observe KRAS multimeric (e.g., dimer) complexes by NanoBiT tagging of KRAS, wherein BRET donor signal originates from an oligomeric KRAS. In a tissue culture flask, HEK293 cells per well were transfected with KRAS-NanoBiT fusions, LgBiT-KRAS2B(G12V) and SmBiT-KRAS2B(G12V) expressed from pNB3K or pNB4K plasmids along with pGEM-3Z carrier DNA (1:1:8 ratio by mass). Transfections were performed using 3:1 FuGENE HD:plasmid ratios. 24 hours post transfection, cells were treated with compound JRW-2192 and BI-2852.
(§3) After incubation in live cells, NanoBRET-TE substrate solution was added to a final concentration of 1×, and BRET was measured on a Glomax Discover plate reader.

KRAS2B(G12C) [6] = biological target: T6, KRAS2B(G12C) (Homo sapiens, UniProt P01116, G12C); test: Target engagement at KRAS(G12C) homomultimeric complexes, NanoBiT oligomer configuration with SmBiT tag; conditions: LgBiT-KRAS2B(G12C) and SmBiT-KRAS2B(G12C)
T6 construct: expressed in transfected cells; host or cells: HEK293
Description: as §2, with “LgBiT-KRAS2B(G12C)” for “LgBiT-KRAS2B(G12V)”, “SmBiT-KRAS2B(G12C)” for “SmBiT-KRAS2B(G12V)”, “JRW-2220” for “JRW-2192”
as §3
The assay was also performed in digitonin permeabilized cells.

KRAS2B(G12C) [7] = biological target: T6, KRAS2B(G12C); test: KRAS(G12C) homomultimeric complexes, NanoBiT oligomer configuration with HiBiT tag; conditions: LgBiT-KRAS2B(G12C) and HiBiT-KRAS2B(G12C)
Description: as §2, with “form” for “observe”, “LgBiT-KRAS2B(G12C)” for “LgBiT-KRAS2B(G12V)”, “HiBiT-KRAS2B(G12C)” for “SmBiT-KRAS2B(G12V)”, “pFN38A” for “pNB4K”, “JRW-2220” for “JRW-2192”
as §3
The assay was also performed in digitonin permeabilized cells. Even after permeabilization, donor signal levels remained significant due to the use of the HiBiT tag, facilitating measurement of target engagement.

KRAS^G12C [8] = biological target: T1, KRAS^G12C; test: NanoBiT BRET target engagement assay in cells, LgBiT and SmBiT fusions, tracer JRW-2111; conditions: HEK293 cells, tracer JRW-2111, FIGS. 2-3
Description: as §1

KRAS [9] = biological target: T2, KRAS; test: as above; conditions: HEK293 cells, wild-type KRAS LgBiT/SmBiT fusions, tracer JRW-2111, FIGS. 2-3
Description: as §1

KRAS^G12D [10] = biological target: T3, KRAS^G12D; test: as above; conditions: HEK293 cells, tracer JRW-2111, FIGS. 2-3
Description: as §1

KRAS^G12V [11] = biological target: T4, KRAS^G12V; test: as above; conditions: HEK293 cells, tracer JRW-2111, FIGS. 2-3
Description: as §1

KRAS2B(Q61L) = biological target: T7, KRAS2B(Q61L) (Homo sapiens, UniProt P01116, Q61L); test: RAS NanoBiT target engagement assay in cells (LgBiT-RAS and SmBiT-RAS); conditions: HEK293 cells, tracer JRW-2310, FIG. 23
T7 construct: expressed in transfected cells; host or cells: HEK293
Description: (§4) To explore this concept, the NanoBiT™ Technology was used to form RAS multimeric (e.g., dimer) complexes by NanoBiT tagging of RAS, wherein BRET donor signal originates from an oligomeric RAS. In a tissue culture flask, HEK293 cells per well were transfected with RAS-NanoBiT fusions, LgBiT-RAS and SmBiT-RAS expressed from pNB3K or pNB4K plasmids along with pGEM-3Z carrier DNA (1:1:8 ratio by mass). Transfections were performed using 3:1 FuGENE HD:plasmid ratios. 24 hours post transfection, cells were treated with compound JRW-2219, JRW-2220, or JRW-2310, and BI-2852.

KRAS2B(Q61R) = biological target: T8, KRAS2B(Q61R) (Homo sapiens, UniProt P01116, Q61R); test: as above; conditions: HEK293 cells, tracer JRW-2310, FIG. 21
T8 construct: expressed in transfected cells; host or cells: HEK293
Description: as §4

KRAS2B(G12C) [12] = biological target: T6, KRAS2B(G12C); test: as above; conditions: HEK293 cells, tracer JRW-2219 or JRW-2220, FIGS. 12-13
Description: as §4

HRAS1 = biological target: T9, HRAS1 (Homo sapiens, UniProt P01112); test: as above; conditions: HEK293 cells, LgBiT-HRAS1 and SmBiT-HRAS1, tracer JRW-2219 or JRW-2220, FIGS. 18-19
T9 construct: expressed in transfected cells; host or cells: HEK293
Description: as §4

KRAS2B(G13D) = biological target: T10, KRAS2B(G13D) (Homo sapiens, UniProt P01116, G13D); test: as above; conditions: HEK293 cells, tracer JRW-2310, FIG. 24
T10 construct: expressed in transfected cells; host or cells: HEK293
Description: as §4

KRAS2B = biological target: T11, KRAS2B (Homo sapiens, UniProt P01116); test: as above; conditions: HEK293 cells, tracer JRW-2219, FIGS. 10-11
T11 construct: expressed in transfected cells; host or cells: HEK293
Description: as §4

KRAS2B(Q61H) = biological target: T12, KRAS2B(Q61H) (Homo sapiens, UniProt P01116, Q61H); test: as above; conditions: HEK293 cells, tracer JRW-2310, FIG. 22
T12 construct: expressed in transfected cells; host or cells: HEK293
Description: as §4

KRAS2B(G12V) [13] = biological target: T5, KRAS2B(G12V); test: as above; conditions: HEK293 cells, tracer JRW-2219 or JRW-2220, FIGS. 16-17
Description: as §4

KRAS2B(G12D) = biological target: T13, KRAS2B(G12D) (Homo sapiens, UniProt P01116, G12D); test: as above; conditions: HEK293 cells, tracer JRW-2219 or JRW-2220, FIGS. 14-15
T13 construct: expressed in transfected cells; host or cells: HEK293
Description: as §4

Structure (SMILES): C=CC(=O)N1CCN(c2ncnc3c(F)c(-c4c(O)cccc4F)c(Cl)cc23)CC1 [ARS-1620]
competition with the KRAS binding agent (BRET) (KRAS^G12C [1]): competition was only observed for the KRAS^G12C mutant
competition with the KRAS binding agent (BRET) (KRAS [2]): only observed for the KRAS^G12C mutant
competition with the KRAS binding agent (BRET) (KRAS^G12D [3]): only observed for the KRAS^G12C mutant
competition with the KRAS binding agent (BRET) (KRAS^G12V [4]): only observed for the KRAS^G12C mutant

competition with the KRAS binding agent (BRET) (KRAS^G12C [1]): competition was observed
competition with the KRAS binding agent (BRET) (KRAS [2]): competition was observed
competition with the KRAS binding agent (BRET) (KRAS^G12D [3]): competition was observed
competition with the KRAS binding agent (BRET) (KRAS^G12V [4]): competition was observed
target engagement (competition with the KRAS binding agent, BRET) (KRAS^G12C [8]): target engagement was observed
target engagement (competition with the KRAS binding agent, BRET) (KRAS [9]): target engagement was observed
target engagement (competition with the KRAS binding agent, BRET) (KRAS^G12D [10]): target engagement was observed
target engagement (competition with the KRAS binding agent, BRET) (KRAS^G12V [11]): target engagement was observed
target engagement (BRET, competition with the RAS binding agent) (KRAS2B(Q61L)): target engagement was observed
target engagement (BRET, competition with the RAS binding agent) (KRAS2B(Q61R)): target engagement was observed
target engagement (BRET, competition with the RAS binding agent) (KRAS2B(G12C) [12]): target engagement was observed
target engagement (BRET, competition with the RAS binding agent) (HRAS1): target engagement was observed
target engagement (BRET, competition with the RAS binding agent) (KRAS2B(G13D)): target engagement was observed
target engagement (BRET, competition with the RAS binding agent) (KRAS2B): target engagement was observed
target engagement (BRET, competition with the RAS binding agent) (KRAS2B(Q61H)): target engagement was observed
target engagement (BRET, competition with the RAS binding agent) (KRAS2B(G12V) [13]): target engagement was observed
target engagement (BRET, competition with the RAS binding agent) (KRAS2B(G12D)): target engagement was observed
Structure (SMILES): Cn1cnc(Cn2ccc3ccc(CNCc4[nH]c5ccccc5c4[C@H]4NC(=O)c5ccc(O)cc54)cc32)c1 [BI-2852]
inhibition of the BRET signal induced by the tracer (functional competition) (KRAS2B(G12V) [5]; tracer JRW-2192, FIG. 5): dose-dependent inhibition of the BRET signal
inhibition of the BRET signal induced by the tracer (functional competition) (KRAS2B(G12C) [6]; digitonin permeabilized HEK293 cells, tracer JRW-2220, FIG. 7): dose-dependent inhibition of the BRET signal
inhibition of the BRET signal induced by the tracer (functional competition) (KRAS2B(G12C) [6]; live HEK293 cells, tracer JRW-2220, FIG. 6): dose-dependent inhibition of the BRET signal
inhibition of the BRET signal induced by the tracer (functional competition) (KRAS2B(G12C) [7]; digitonin permeabilized HEK293 cells, tracer JRW-2220, FIG. 9): dose-dependent inhibition of the BRET signal
inhibition of the BRET signal induced by the tracer (functional competition) (KRAS2B(G12C) [7]; live HEK293 cells, tracer JRW-2220, FIG. 8): dose-dependent inhibition of the BRET signal

Structure (SMILES): O=C(CCc1ccc2n1[B-](F)(F)[N+]1=C(c3ccc[nH]3)C=CC1=C2)NCCOCCOCCOCCOCCC(=O)NCc1cccc(Cn2ccc3ccc(CNCc4[nH]c5ccccc5c4C4NC(=O)c5ccc(O)cc54)cc32)c1 (stereo not shown) [JRW-2192, 1-(3-(5,5-difluoro-7-(1H-pyrrol-2-yl)-5H-5λ^4,6λ^4-dipyrrolo[1,2-c:2′,1′-f][1,3,2]diazaborinin-3-yl)propanamido)-N-(3-((6-((((3-(6-hydroxy-3-oxoisoindolin-1-yl)-1H-indol-2-yl)methyl)amino)methyl)-1H-indol-1-yl)methyl)benzyl)-3,6,9,12-tetraoxapentadecan-15-amide]
BRET signal with increasing concentrations of the tracer (KRAS2B(G12V) [5]; FIG. 5): dose-dependent increase in the BRET signal

Structure (SMILES): O=C(CCOCCOCCOCCOCCNC(=O)CCc1ccc2n1[B-](F)(F)[N+]1=C(c3ccc[nH]3)C=CC1=C2)NCCCn1cnc(Cn2ccc3ccc(CNCc4[nH]c5ccccc5c4C4NC(=O)c5ccc(O)cc54)cc32)c1 (stereo not shown) [JRW-2220, 1-(3-(5,5-difluoro-7-(1H-pyrrol-2-yl)-5H-5λ^4,6λ^4-dipyrrolo[1,2-c:2′,1′-f][1,3,2]diazaborinin-3-yl)propanamido)-N-(3-(4-((6-((((3-(6-hydroxy-3-oxoisoindolin-1-yl)-1H-indol-2-yl)methyl)amino)methyl)-1H-indol-1-yl)methyl)-1H-imidazol-1-yl)propyl)-3,6,9,12-tetraoxapentadecan-15-amide]
BRET signal with increasing concentrations of the tracer (KRAS2B(G12C) [6]; digitonin permeabilized HEK293 cells, FIG. 7): dose-dependent increase in the BRET signal
BRET signal with increasing concentrations of the tracer (KRAS2B(G12C) [6]; live HEK293 cells, FIG. 6): dose-dependent increase in the BRET signal
BRET signal with increasing concentrations of the tracer (KRAS2B(G12C) [7]; digitonin permeabilized HEK293 cells, FIG. 9): dose-dependent increase in the BRET signal
BRET signal with increasing concentrations of the tracer (KRAS2B(G12C) [7]; live HEK293 cells, FIG. 8): dose-dependent increase in the BRET signal
